Values of other authors as cited in US20240307504A1, “INTRANASAL FORMULATIONS AND DELIVERY OF SOMATOSTATIN MIMETICS AND USES THEREOF” (NBO PHARMA LLC, priority 2021, published 2024).
Where two headings read alike, the source gives them in different places.

C[C@@H](O)[C@@H]1NC(=O)[C@H](CCCCN)NC(=O)[C@@H](Cc2c[nH]c3ccccc23)NC(=O)[C@H](Cc2ccccc2)NC(=O)[C@@H](NC(=O)[C@H](N)Cc2ccccc2)CSSC[C@@H](C(=O)N[C@H](CO)[C@@H](C)O)NC1=O [Octreotide]
biological half-life (after intravenous administration): 72 minutes
biological half-life (after subcutaneous administration): 102 minutes

L-alanyl-glycyl-L-cysteinyl-L-lysyl-L-asparagyl-L-phenylalanyl-L-phenylalanyl-L-tryptophyl-L-lysyl-L-threonyl-L-phenylalanyl-L-threonyl-L-seryl-L-cysteine (3->14)-disulfide [somatostatin]
biological half-life (in vivo): 2-3 minutes
